Assay results from US5574166A, “Crystalline form of 2-(2-hydroxy-3-α-cumyl-5-tert-octylphenyl)-2H-benzotriazole” (Ciba-Geigy Corporation, priority 1995, dated 1996).
Entries after “also recorded” stand apart in the source; their conditions may differ.

Key:
[1] = Photostability of UV absorber in gelatine layer on polyester base (Example 21); type: physicochemical; details: for Dmax (maximum density in the range 330-380 nm): before exposure, gelatine layer; for photostability (in words): 30-120 kJ/cm^2 exposure
Method: The amount of UV absorber shown in the table below is dissolved in 2 ml of ethyl acetate. 1 ml of this solution is mixed with 9 ml of an aqueous gelatine solution [comprising 27.6 g/l of gelatine and 6.8 g/l of an 8% aqueous solution of 4,8-diisobutylnaphthalene-2-sulfonic acid (sodium salt) as wetting agent]. This mixture is emulsified for 3 minutes by means of ultrasound. 7.5 ml of this UV absorber emulsion are mixed with 4.5 ml of an aqueous curing agent solution (comprising 0.24% of 2-hydroxy-4,6-dichloro-s-triazine, potassium salt). 8 ml of this emulsion are poured onto a polyester base (13×18 cm). The casting is cured for 7 days at room temperature. A UV spectrometer is then used to determine the values for the maximum density in the range from 330-380 nm. The sample is then exposed in an Arias exposure unit with a total of 30, 60, 90 and 120 kJ/cm^2, the maximum density is remeasured, and the difference (-ΔD in %) between the corresponding values is calculated.

[2] = Solubility of benzotriazole UV absorbers in organic solvents (percent solids of saturated filtrate, ASTM D 2369-81); details: for Solubility in organic solvents (in words): organic / coatings solvents
Method: The relative solubility of three different benzotriazole UV absorbers in a five typical organic solvents is measured by dissolving the benzotriazole UV absorber in 50-100 mL of five different solvents till the solutions become supersaturated. This is seen when the benzotriazole begins to settle to the bottom of the test flask. The supersaturated solutions are allowed to remain undisturbed overnight. Then, the top layer is decanted and filtered. […] The higher the percent solids found indicates a more soluble benzotriazole.

[3] = Handling properties and storage stability of the solid form; type: physicochemical; details: apparent density
[4] = Volatility of UV absorber; type: physicochemical; details: long-term coating uses
[5] = Light stabilization effectiveness (general statement); details: versus 2-[2-hydroxy-3,5-di(α-cumyl)phenyl]-2H-benzotriazole
[6] = EXXATE ® 600 (hexyl acetate from Exxon)
[7] = PM acetate (1-methoxy-2-propyl acetate)
[8] = PM solvent (1-methoxy-2-propanol)

CCCCCCCCCCCCc1cc(-n2nc3ccccc3n2)c(O)c(C(C)(C)c2ccccc2)c1 [Example 10, 2-(2-Hydroxy-3-α-cumyl-5-dodecylphenyl)-2H-benzotriazole]
ΔD in % ([1]; 30 KJ exposure (kJ/cm^2)): 2%
ΔD in % ([1]; 60 KJ exposure (kJ/cm^2)): 4%
ΔD in % ([1]; 90 KJ exposure (kJ/cm^2)): 5%
ΔD in % ([1]; 120 KJ exposure (kJ/cm^2)): 8%
Dmax (maximum density in the range 330-380 nm) [1]: 1.9
Solubility [2, 6]: > 50 grams/100 solvent
Solubility [2, 7]: > 50 grams/100 solvent
Solubility ([2]; acetone): > 50 grams/100 solvent
Solubility ([2]; butyl acetate): > 50 grams/100 solvent
Solubility ([2]; methyl amyl ketone): > 50 grams/100 solvent
Solubility in organic solvents (in words) [2]: do not suffer from the solubility limitations of UV absorber D in non-HAPS solvents
Solubility ([2]; xylene): > 50 grams/100 solvent

CC(C)(C)CC(C)(C)c1cc(-n2nc3ccccc3n2)c(O)c(C(C)(C)c2ccccc2)c1 [Example 7, 2-(2-hydroxy-3-α-cumyl-5-tert-octylphenyl)-2H-benzotriazole]
flowability, meterability and storage stability ([3]; listed as compound of formula I): acceptable properties in respect to handling, apparent density, flowability, meterability and storage stability
volatility [4]: same low volatility
light stabilization effectiveness [5]: superior light stabilization effectiveness
Solubility [2, 6]: 22 grams/100 solvent
Solubility [2, 7]: 14 grams/100 solvent
Solubility [2, 8]: 4 grams/100 solvent
Solubility ([2]; butyl acetate): 33 grams/100 solvent
Solubility ([2]; methyl amyl ketone): 33 grams/100 solvent
Solubility in organic solvents (in words) [2]: soluble in environmentally friendly solvents
Solubility ([2]; xylene): 76 grams/100 solvent

CCC(C)c1cc(C(C)(C)C)cc(-n2nc3ccccc3n2)c1O (stereo not drawn) [A, 2(2-hydroxy-3-sec-butyl-5-tert-butylphenyl)-2H-benzotriazole]
photostability (in words) [1]: not as photostable as the UV absorbers D, E and F
ΔD in % ([1]; 30 KJ exposure (kJ/cm^2)): 4%
ΔD in % ([1]; 60 KJ exposure (kJ/cm^2)): 8%
ΔD in % ([1]; 90 KJ exposure (kJ/cm^2)): 16%
ΔD in % ([1]; 120 KJ exposure (kJ/cm^2)): 25%
Dmax (maximum density in the range 330-380 nm) [1]: 2.0

CCCCCCCCCc1cc(-n2nc3ccccc3n2)c(O)c(C(C)(C)c2ccccc2)c1 [Example 4, 2-(2-Hydroxy-3-α-cumyl-5-nonylphenyl)-2H-benzotriazole]
Solubility [2, 6]: > 50 grams/100 solvent
Solubility [2, 7]: > 50 grams/100 solvent
Solubility ([2]; acetone): > 50 grams/100 solvent
Solubility ([2]; butyl acetate): > 50 grams/100 solvent
Solubility ([2]; methyl amyl ketone): > 50 grams/100 solvent
Solubility ([2]; xylene): > 50 grams/100 solvent

CC(C)(C)CC(C)(C)c1cc(-n2nc3ccccc3n2)c(O)c(C(C)(C)c2ccccc2)c1 [Example 3, 2-(2-hydroxy-3-α-cumyl-5-tert-octylphenyl)-2H-benzotriazole]
Ease and rate of dissolution ([2]; non-HAPS solvents): dissolves much more easily and rapidly in the non-HAPS solvents
Solubility in organic solvents (in words) [2]: essentially the same solubility parameters in the various solvents as seen in Example 13 for the new crystalline modification
Solubility in organic solvents (in words) ([2]; listed as amorphous modification): excellent solubility characteristics

CCCCCCCCCCCCc1cc(C)cc(-n2nc3ccccc3n2)c1O [B, 2(2-hydroxy-3-dodecyl-5-methylphenyl)-2H-benzotriazole]
photostability (in words) [1]: not as photostable as the UV absorbers D, E and F
ΔD in % ([1]; 30 KJ exposure (kJ/cm^2)): 5%
ΔD in % ([1]; 60 KJ exposure (kJ/cm^2)): 10%
ΔD in % ([1]; 90 KJ exposure (kJ/cm^2)): 17%
ΔD in % ([1]; 120 KJ exposure (kJ/cm^2)): 25%
Dmax (maximum density in the range 330-380 nm) [1]: 2.1

CCC(C)(C)c1cc(-n2nc3ccccc3n2)c(O)c(C(C)(C)CC)c1 [UV absorber B]
photostability (in words) [1]: not as photostable as the UV absorbers D, E and F
ΔD in % ([1]; 30 KJ exposure (kJ/cm^2)): 4%
ΔD in % ([1]; 60 KJ exposure (kJ/cm^2)): 7%
ΔD in % ([1]; 90 KJ exposure (kJ/cm^2)): 12%
ΔD in % ([1]; 120 KJ exposure (kJ/cm^2)): 24%
Dmax (maximum density in the range 330-380 nm) [1]: 2.1
volatility [4]: too volatile for long term coating uses
Solubility [2, 6]: 24 grams/100 solvent
Solubility [2, 7]: 10 grams/100 solvent
Solubility [2, 8]: 4 grams/100 solvent
Solubility ([2]; butyl acetate): 27 grams/100 solvent
Solubility ([2]; methyl amyl ketone): 24 grams/100 solvent
Solubility in organic solvents (in words) [2]: clearly quite soluble even in the solvents other then xylene
Solubility ([2]; xylene): 54 grams/100 solvent

CC(C)(C)CC(C)(C)c1cc(-n2nc3ccccc3n2)c(O)c(C(C)(C)c2ccccc2)c1 [Example 2, 2-(2-Hydroxy-3-α-cumyl-5-tert-octylphenyl)-2H-benzotriazole]
flowability, meterability and storage stability ([3]; listed as Example 18): poor flowability, meterability and storage stability

CC(C)(C)CC(C)(C)c1cc(-n2nc3ccccc3n2)c(O)c(C(C)(C)c2ccccc2)c1 [E, 2(2-hydroxy-3-cumyl-5-tert-octylphenyl)-2H-benzotriazole]
ΔD in % ([1]; 30 KJ exposure (kJ/cm^2)): 3%
ΔD in % ([1]; 60 KJ exposure (kJ/cm^2)): 4%
ΔD in % ([1]; 90 KJ exposure (kJ/cm^2)): 5%
ΔD in % ([1]; 120 KJ exposure (kJ/cm^2)): 7%
Dmax (maximum density in the range 330-380 nm) [1]: 2.0
Solubility in organic solvents (in words) [2]: do not suffer from the solubility limitations of UV absorber D in non-HAPS solvents

CC(C)(c1ccccc1)c1cc(-n2nc3ccccc3n2)c(O)c(C(C)(C)c2ccccc2)c1 [UV absorber A, 2(2-hydroxy-3,5-di-cumylphenyl)-2H-benzotriazole]
photostability (in words) [1]: no more stable than are UV absorbers E and F
ΔD in % ([1]; 30 KJ exposure (kJ/cm^2)): 0%
ΔD in % ([1]; 60 KJ exposure (kJ/cm^2)): 5%
Dmax (maximum density in the range 330-380 nm) [1]: 1.9
volatility [4]: excellent non-volatility
Solubility [2, 6]: 4 grams/100 solvent
Solubility [2, 7]: 3 grams/100 solvent
Solubility ([2]; butyl acetate): 6 grams/100 solvent
Solubility ([2]; methyl amyl ketone): 4 grams/100 solvent
Solubility in organic solvents (in words) ([2]; listed as 2-(2-hydroxy-3,5-di-α-cumylphenyl)-2H-benzotriazole): relatively insoluble; also recorded: sparingly soluble
Solubility in organic solvents (in words) ([2]; listed as 2-[2-hydroxy-3,5-di(α-cumyl)phenyl]-2H-benzotriazole): sparingly soluble in environmentally more friendly solvents
solubility in toluene or xylene ([2]; toluene or xylene): about 14 % by weight
Solubility ([2]; xylene): 14 grams/100 solvent
soluble at level in xylene ([2]; xylene): ~14 % (by weight)
